This assay has as its system A549-luc cells. The experiment in a line: siRNA delivery, luciferase gene silencing. It is filed as cell-based, human. Conditions: 10 nM siRNA, 48 h. As to the method: The A549-luc cells that stably express the reporter gene luciferase GL3 (1-2 x 10^10 RLU/mg protein) were established by transfecting human lung carcinoma A549 cells (CCL-185; ATCC) with pGL3-Luc plasmid (Clontech, Mountain View, CA, USA) using jetPEI™ as delivery system (Polyplus-Transfection, Illkirch, France). Cells were grown in RPMI 1640 medium (Eurobio, Les Ulis, France) supplemented with 10% Fetal Bovine Serum (Eurobio, Les Ulis, France), 1% antibiotic solution (pencillin-streptomycin, Gibco-invitrogen) and maintained under 0.8 µg/mL G418 selection (Promega, Madison, WI, USA) at 37 °C in a 5% CO2 humidified atmosphere. […]
Luciferase gene expression was determined 48 h after delivery with a Luciferase Assay System (Promega, Charbonnières, France) according to manufacturer's instructions. The luminescence was quantified using 2 µL of cell lysate with a Centro LB luminometer (Berthold, Thoiry, France). Protein concentration in cell lysate was measured by using a BCA assay kit (Interchim, Montluçon, France), according to manufacturer's instructions. After expressing the luciferase activity as relative light units integrated over 10 s per mg of cell protein (RLU/mg), the luciferase gene silencing was calculated relative to the luciferase activity of non-transfected A549-luc cells.

In turn, C25diynetrioxa-L-Histidine [compound 1] had a specific inhibition (40 µg/ml, polymerized micelles of the surfactant) of 80%.
C25diynetrioxaamine [compound 2] came in with a maximum inhibition (polymerized micelles of the surfactant at increasing concentrations) of 25%.

The values are drawn from patent publication EP3225257A1, “AMPHIPHILIC MONOMERS BASED NANOVECTORS AND THEIR USE FOR SIRNA DELIVERY” (Université de Strasbourg, priority 2016, dated 2017).
